Results on 2 compounds are retold here after patent publication US5763492A, “Methods for effecting memory enhancement mediated by non-steroidal sulfatase inhibitors” (Duguesne University of the Holy Ghost, priority 1996, dated 1998).

Where “and” joins values, the source holds several entries; their conditions need not be identical. Equal entries are not always repeated. Structures can show the parent of a compound that is named as a salt.

Common to all, as to assay type: in vivo, rat
Assay [1] has as its system scopolamine-induced amnesia in rats. Nature of the assay: Passive avoidance test (Gemini Avoidance System), crossover latency, scopolamine-induced amnesia.
A further assay relates to brain sulfatase. Nature of the assay: Brain sulfatase activity after IP dosing of rats. To be noted: 30 mg/kg IP; for Brain Sulfatase Activity: mean ± SEM, P<0.01 vs control, corn oil control 3.24 ± 0.32. As for the experimental part: (§1) DU-14 was tested for its sulfatase inhibition in rats. 30 mg/kg of the compound was administered to rats IP for 15 days. Sulfatase inhibition was measured by the sulfatase activity in ng E1 S/μg protein/hr in the liver and brain as determined by methods known in the art. The results are presented below in Tables 1 and 2.

Another assay concerns liver sulfatase. Nature of the assay: Liver sulfatase activity after IP dosing of rats. The settings on record: for % Inhibition of liver sulfatase / Liver Sulfatase Activity: 30 mg/kg IP; for Liver Sulfatase Activity: mean ± SEM, P<0.01 vs control, corn oil control 164.10 ± 2.5. As to the method:
as §1

In assay [1] (DHEAS 20 mg/Kg IP one hour before acquisition trial, scopolamine 1 mg/Kg IP 30 minutes before), `C[C@]12CC[C@H](OS(=O)(=O)O)CC1=CC[C@@H]1[C@@H]2CC[C@]2(C)C(=O)CC[C@@H]12` [DHEAS, dehydroepiandrosterone sulfate, reference compound] gave a maximum crossover latency of 262.5 ± 84.6 s. Moreover, the “reversal of scopolamine-induced amnesia” value in assay [1] (DHEAS 5-70 mg/kg IP one hour before acquisition trial, bell shaped dose response curve) was “significant (p≤0.05), reversal of scopolamine-induced amnesia”.
Turning to `CCCCCCCCCCCCCC(=O)NCCc1ccc(OS(N)(=O)=O)cc1` [DU-14], in the assay with brain sulfatase (1 Day), the “% Inhibition of brain sulfatase” value is reported as 14.8%. The “Brain Sulfatase Activity” value in the assay with brain sulfatase (1 Day) was determined as 2.76 ± 0.27 pg E1 S/μg protein/hr; in the assay on brain sulfatase (15 Days), 0.48 ± 0.10 pg E1 S/μg protein/hr. Further, the crossover latency in assay [1] (DU-14 alone 30 mg/Kg IP daily for 15 days before acquisition trial, scopolamine) is 278.7±88.1; in assay [1] (DU-14 alone, single dose 30 mg/Kg IP four hours before acquisition trial), “failed to increase crossover latency”. In assay [1] (DU-14 alone daily for 15 days, 30 mg/Kg IP), the “reversal of scopolamine-induced amnesia” value is on record as “significant (p≤0.05) reversal of scopolamine-induced amnesia”. The “crossover latency, overall conclusion” value in assay [1] (summary of Example III) was “significant increase in crossover latency”. For the same compound, the “% Inhibition of liver sulfatase” value in the assay on liver sulfatase (1 Day) was 95.2%; in the assay on liver sulfatase (15 Days, 30 mg/kg), 97.6% and ~98%. Also, the results for the “Liver Sulfatase Activity” value with liver sulfatase (1 Day) and in the assay on liver sulfatase (15 Days) were 7.85 ± 0.65 ng E1 S/μg protein/hr and 4.01 ± 0.23 ng E1 S/μg protein/hr, respectively. For the same compound, the “liver sulfatase after only 1 day” value with liver sulfatase (1 day, from about 164) is “about 8”.
